In ChEMBL document CHEMBL4145663, “Sweet Binders: Carbonic Anhydrase IX in Complex with Sucralose” (ACS Med Chem Lett, 2018):

Key:
Carbonic anhydrase 2 = Carbonic anhydrase 2 (Homo sapiens, UniProt P00918); assay: Binding affinity to carbonic anhydrase 2 (unknown origin)
Carbonic anhydrase 9 = Carbonic anhydrase 9 (Homo sapiens, UniProt Q16790); assay: Binding affinity to carbonic anhydrase 9 (unknown origin) expressed in Escherichia coli BL21 (DE3)

| SMILES | Ki (Carbonic anhydrase 2) | Ki (Carbonic anhydrase 9) |
| --- | --- | --- |
| OC[C@H]1O[C@@](CO)(O[C@H]2O[C@H](CO)[C@@H](O)[C@H](O)[C@H]2O)[C@@H](O)[C@@H]1O [SUCROSE] | > 20000 nM | > 20000 nM |
| OC[C@H]1O[C@H](O[C@]2(CCl)O[C@H](CCl)[C@@H](O)[C@@H]2O)[C@H](O)[C@@H](O)[C@H]1Cl [SUCRALOSE] | 300 nM | 2200 nM |
